Results on 52 molecules are retold here after PubChem BioAssay AID1996.

≈ marks a conversion by molar mass, not a printed value. Where only a bound is given, the exact number is not on record here.

The conditions of the data set: buffer; pH 7.4; 200.0 µM.
In general, solubility (kinetic) refers to the concentration staying in solution when a stock, usually in DMSO, is diluted into the medium. Turning to `Cc1cc2oc(=O)cc(Cn3ccnc3)c2cc1Cl`, the solubility (kinetic) is 34.3 µg/mL (≈ 125 µM). The same measure for `Cc1cc(=O)[nH]c2ccc(S(=O)(=O)Nc3ccc(O)cc3)cc12`: above 49.6 µg/mL; for `CC(OC(=O)c1ccco1)C(=O)Nc1ccc(Cl)cn1` (configuration not stated): above 44.2 µg/mL.

For the molecule `C=CCSc1nc(C)cc(C(=O)OCC)c1C#N`, the kinetic solubility is 8.6 µg/mL (≈ 32.8 µM). The same measure for `O=C(OCC(=O)N1CCCC1=O)c1cc(Cl)ccc1O`: above 44.7 µg/mL; for `CCOn1c(=O)c(=O)n(OC)c2ccccc21`: above 35.4 µg/mL. The same measure for `Cc1cccc(NC(=O)C(=O)C2C(=O)Nc3ccccc32)c1` (configuration not stated): above 44.1 µg/mL; for `CCCOc1ncnc2c1[nH]c1ccc(OC)cc12`: 0.5 µg/mL (≈ 1.94 µM). The same measure for `CCc1c(C)sc(NC(=O)/C=C/C(=O)O)c1C(N)=O`: above 42.3 µg/mL; for `O=C(Nc1ccccc1Cl)c1cc[n+]([O-])cc1`: above 37.3 µg/mL; for `COc1ccc([N+](=O)[O-])cc1Nc1c2ccccc2nc2ccccc12`: below 0.2 µg/mL. On to `Cc1ccc(C(=O)NCCNC(=O)c2cnccn2)cc1`, for which the kinetic solubility came to 34.9 µg/mL (≈ 123 µM). `CCc1c(C(=O)NCCc2cccc(C)c2)[nH]c(C)c1C(C)=O`: the solubility (kinetic) was found to be 5 µg/mL (≈ 16 µM). The molecule `Cc1cc(C)c2c(N)c(C(=O)c3ccccc3Cl)sc2n1` yielded a kinetic solubility of 0.4 µg/mL (≈ 1.26 µM). The same measure for `CC1(C)Cc2nc3sc4c(NCCO)ncnc4c3cc2CS1`: above 52 µg/mL; for `O=Cc1cnc(N2CCCCC2)s1`: 27.6 µg/mL (≈ 141 µM). In the case of `Cc1nc(C(=O)N2CCCC(C(=O)c3ccc(Cl)cc3)C2)cs1` (configuration not stated) it was above 52.3 µg/mL; in that of `O=C(NCC(c1ccco1)N1CCOCC1)c1c(F)cccc1F` (configuration not stated), above 50.5 µg/mL. The same measure for `Cc1cccc(S(=O)(=O)NCCc2ccccc2)c1`: 35.7 µg/mL (≈ 130 µM); for `O=C(Nc1ccc2ncccc2c1)c1ccccc1`: 30.7 µg/mL (≈ 124 µM). Turning to `Cc1ccccc1OCc1ccc(C(=O)N2CCOCC2)o1`, the kinetic solubility was 41.2 µg/mL (≈ 137 µM). Take `COCCCNC(=O)c1cn(C)c(=O)c2c1c1ccccc1n2C`: the kinetic solubility was 19.8 µg/mL (≈ 60.5 µM). Against the preceding molecule, the solubility kinetic is about 2.1-fold lower.

For the molecule `CCOC(=O)c1ccc(NC(=O)C2COc3ccccc3O2)cc1` (configuration not stated), the solubility (kinetic) worked out at 2.1 µg/mL (≈ 6.42 µM). In turn, `COc1cc(/C=C/C(=O)OCC(=O)NC(=O)NC(C)C)ccc1O` came in with a kinetic solubility above 50.5 µg/mL.

Regarding `Cc1ccc(C(=O)NCC(=O)Nc2ccc(Cl)cc2)s1`, the kinetic solubility worked out at 4.6 µg/mL (≈ 14.9 µM).

On to `CCCC[N+]1(C)[C@@H]2CC(OC(=O)[C@H](CO)c3ccccc3)C[C@H]1[C@@H]1O[C@@H]12.[Br-]` (some centres not stated), for which the solubility (kinetic) was above 66.1 µg/mL. Consider `O=C(/C=C/c1ccccc1)NCCc1c[nH]c2ccccc12`, for which the solubility (kinetic) worked out at 19.7 µg/mL (≈ 67.8 µM). The same measure for `O=C(Nc1cccnc1)C1=NN(C2CCS(=O)(=O)C2)C(=O)CC1` (configuration not stated): above 50.5 µg/mL; for `O=C1C=CC(=O)N1`: 9 µg/mL (≈ 92.7 µM); for `Cc1cc(NC(=O)C(Cl)(Cl)Cl)no1`: 35.7 µg/mL (≈ 147 µM). The same measure for `Cc1ccc(C(=O)OCC(=O)N2CCCCCC2)cc1S(=O)(=O)N1CCOCC1`: above 63.7 µg/mL; for `Cc1ccccc1NC(=O)c1sc(NC(=O)C2CC2)nc1C`: 4.8 µg/mL (≈ 15.2 µM). The same measure for `COc1ccc2[nH]c(C(=O)N3CCNCC3)cc2c1OC`: 36.2 µg/mL (≈ 125 µM); for `Cc1ccc(NC(=O)CC(C)c2ccccc2)cc1S(=O)(=O)N1CCOCC1` (configuration not stated): 47.5 µg/mL (≈ 118 µM); for `CC(=O)c1c(C)[nH]c(C(=O)COC(=O)c2cccs2)c1C`: 6.9 µg/mL (≈ 22.6 µM). As to `O=C(NC1CCCCC1)c1ccc(-c2ccccc2)cc1`, the kinetic solubility was below 0.6 µg/mL.

For `O=C(Cn1c(CO)nc2ccccc21)NC1CCCCCC1`, the kinetic solubility was above 45.2 µg/mL. In the case of `Cc1ccc2cccc(SCC(=O)Nc3ccc(F)cc3)c2n1` it was below 0.3 µg/mL. In turn, `COc1ccccc1NS(=O)(=O)c1ccc(N2CCOCC2)c(N)c1` showed a solubility (kinetic) of 5.1 µg/mL (≈ 14 µM). As to `CCCC12CN3CC(C)(CN(C1)C3c1cccs1)C2=O` (configuration not stated), the kinetic solubility was 39.1 µg/mL (≈ 135 µM). The same measure for `O=C(NN1CCOCC1)c1ccc(Br)cc1`: above 42.8 µg/mL; for `CCN(CC)CCn1c(NC(=O)c2ccccc2O)nc2ccccc21`: 18.5 µg/mL (≈ 52.5 µM). The molecule `Cc1ccc(C)c(C(=O)CCC(=O)NCc2ccc(Cl)cc2)c1` returned a solubility (kinetic) of 10.9 µg/mL (≈ 33 µM). As to `Cc1ccc(NC(=S)N2CCC(NC(=O)c3ccc(C)cc3)CC2)cc1`, the kinetic solubility is 2.2 µg/mL (≈ 5.99 µM). Against the preceding molecule, the solubility kinetic is about 5-fold lower. In the case of `Cl.N[C@@H]1C[C@H]1c1ccccc1` it was above 25.4 µg/mL; in that of `O=C(Nc1cccc([N+](=O)[O-])c1)c1ccc(N2CCCC2=O)cc1`, 1.5 µg/mL (≈ 4.61 µM). In the case of `CC(=O)Nc1ccc(NC(=O)COC(=O)c2ccc(S(=O)(=O)NCc3ccco3)cc2)cc1`, the kinetic solubility was found to be 8.9 µg/mL (≈ 18.9 µM). In turn, `N#Cc1c(N)n(-c2cccc(O)c2)c2nc3ccccc3nc12` came in with a kinetic solubility of 6.4 µg/mL (≈ 21.2 µM).

As to `COc1cc(OC)nc(Oc2cc(C=O)ccc2OC)n1`, the kinetic solubility is above 43.5 µg/mL. Consider `CCN(c1ccccc1)c1nc(C#N)nc(N(CC)c2ccccc2)n1`, for which the kinetic solubility is 0.9 µg/mL (≈ 2.61 µM). In turn, `Cc1ccc(OCC(=O)NCCNC(=O)c2cccnc2)cc1C` yielded a kinetic solubility of 46.7 µg/mL (≈ 143 µM). In the case of `COc1ccc(OC)c(NC(=O)Nc2cccnc2)c1` it was above 41 µg/mL.
